Values quoted from earlier work in US6660297B2, “Nutritional supplement to treat macular degeneration” (Bausch & Lomb Incorporated, priority 2001, dated 2003).
Read-outs that look alike come from different tables or passages of the source.

Legend:
[1] = 1.0 mg equal to 1 IU
[2] = in vivo
[3] = in vivo; remark: listed apart in the source
[4] = consumed daily
[5] = not given; remark: listed apart in the source
macular degeneration = settings: 80 mg of zinc versus placebo
[6] = in vivo; remark: listed apart in the source

Molecule: CC(=O)Oc1c(C)c(C)c2c(c1C)CC[C@@](C)(CCC[C@H](C)CCC[C@H](C)CCCC(C)C)O2 (racemic) [dl-alpha tocopheryl acetate]
- level at which no adverse effects have been observed [1]: ≤ 800 mg

Molecule: CC1=C(/C=C/C(C)=C/C=C/C(C)=C/C=C/C=C(C)/C=C/C=C(C)/C=C/C2=C(C)CCCC2(C)C)C(C)(C)CCC1 [beta-carotene]
- efficiency of conversion to vitamin A in the body [2]: approximately 50%
- observed risk in individuals who receive 20 mg/day (male smokers): increased risk of lung cancer
- observed risk in individuals who receive 20 mg/day (men with previous myocardial infarction): increased risk of fatal coronary heart attacks
- dosage level with no observed adverse effects (healthy, non-smokers): ≤ 25 mg per day

Molecule: [Cu] [copper]
- effect on zinc absorption [3]: does not appear to have a deleterious effect

Molecule: O=C1O[C@H]([C@@H](O)CO)C(O)=C1O [vitamin C, Ascorbic acid]
- daily intake without any known adverse effects [4]: ≥ 1,000 mg

Molecule: [O]=[Zn] [zinc oxide]
- tolerability in the digestive system ([5]; in vivo): well tolerated

Molecule: [Zn] [zinc]
- retarding macular degeneration changes (macular degeneration): significantly better than placebo
- tolerability ([5]; about 200 mg per day): well tolerated
- side effects ([5]; about 200 mg per day, attributable to copper deficiency): potential side effects such as anemia

Molecule: vitamin E
- time stored vitamin E contributes to the total body pool [6]: up to one
